Some test systems named below: Candida krusei ATCC 6258; Escherichia coli O157; Vibrio cholerae O1 Inaba; Candida krusei CBS 573; Rhizoctonia solani; Ramulariopsis gossypii; Trichoderma asperellum; Fusarium solani; Fusarium oxysporum.
Common to all, as to assay: ≥ marks a high value that may be exact or a test limit, other limits are often not marked, values filed in µg/mL are converted to µM
For assay [1], the system named is Pseudomonas aeruginosa ATCC 27853.
For assay [2], the system named is Staphylococcus epidermidis ATCC 12228.
Assay [3] relates to Escherichia coli ATCC 25922.
Assay [4] relates to Enterobacter cloacae ATCC 13047.
Assay [5] deals with Staphylococcus aureus ATCC 29213.
Assay [6] deals with Enterococcus faecalis ATCC 4028.
The test system of assay [7] is Candida glabrata ATCC 90030.
In assay [8] the test system is Candida albicans ATCC 90028.
In assay [9] the test system is Staphylococcus aureus ATCC 25923.
For assay [10], the system named is Enterococcus faecalis ATCC 29212.
The subject of assay [11] is Staphylococcus aureus ATCC 43300.
For assay [12], the system named is Salmonella enterica subsp. enterica serovar Typhimurium ATCC 13311.
Assay [13] deals with Shigella sonnei ATCC 11060.
Assay [14] has as its system Bacillus cereus ATCC 11778.
For assay [15], the system named is Candida parapsilosis CBS 604.
Assay [16] deals with Candida albicans ATCC 10231.
Assay [17] relates to Saccharomyces cerevisiae SZMC 0644.
Assay [18] deals with Pseudomonas aeruginosa ATCC 47085.
Assay [19] deals with Klebsiella pneumoniae ATCC 13883.
The test system of assay [20] is Acinetobacter baumannii ATCC 19606.
In assay [21] the test system is Streptococcus iniae FP5228.
The subject of assay [22] is Vibrio ordalii KCCM 41669.
The test system of assay [23] is Vibrio harveyi ATCC 14126.
In assay [24] the test system is Edwardsiella tarda FP4130.
For assay [25], the system named is Aeromonas salmonicida RFAS1.
Assay [26] relates to Vibrio alginolyticus KCCM 2928.
Assay [27] relates to Pectobacterium carotovorum.
Assay [28] deals with Cryptococcus neoformans ATCC 28957.
The test system of assay [29] is Bacillus subtilis ATCC 23857.
Assay [30] deals with Fusarium oxysporum f.sp. vasinfectum.
The test system of assay [31] is Pseudomonas syringae pv. tabaci.
Assay [32] deals with Bacillus cereus ATCC 14579.
In assay [33] the test system is Xanthomonas campestris pv. citri.
In assay [34] the test system is Escherichia coli K-12 594.
Assay [35] has as its system Staphylococcus aureus SR1550.
Assay [36] concerns Staphylococcus aureus ATCC 6538P.

The values below come from DBAASP.

Converted amounts (≈) assume the structure as drawn. Where only a bound is given, the exact number is not on record here.

In general, MIC refers to the smallest concentration in the dilution series that meets the test's criterion for growth inhibition. Higher therefore signals weaker potency.

Consider `CC[C@H](C)[C@H](NC(=O)[C@H](CC(C)C)NC(=O)CNC(=O)[C@H](CCCCN)NC(=O)[C@@H](NC(=O)[C@H](CC(C)C)NC(=O)[C@H](CCCCN)NC(=O)[C@@H]1CCCN1C(=O)[C@@H](NC(=O)[C@H](CC(C)C)NC(=O)[C@H](CO)NC(=O)[C@H](Cc1ccccc1)NC(=O)[C@@H](N)Cc1ccccc1)[C@@H](C)CC)C(C)C)C(=O)N[C@@H](CO)C(=O)N[C@@H](C)C(=O)N[C@@H](Cc1ccccc1)C(=O)N[C@@H](CCCCN)C(N)=O` [FFSLIPKLVKGLISAFK], for which the MIC against Candida krusei ATCC 6258 is no less than 37.5 µM; in assay [1] it was 9.38 µM (≈ 17.9 µg/mL); in assay [2], 1.17 µM (≈ 2.23 µg/mL); in assay [3], 4.69 µM (≈ 8.95 µg/mL); in assay [4], 18.8 µM (≈ 35.8 µg/mL); in assay [5], 2.34 µM (≈ 4.46 µg/mL). Moreover, the MIC in [6] turned out to be 1.17 µM (≈ 2.23 µg/mL); in assay [7] it was 18.8 µM (≈ 35.8 µg/mL); in assay [8], 9.38 µM (≈ 17.9 µg/mL).

With `CC(C)C[C@H](NC(=O)CNC(=O)[C@H](CCCN=C(N)N)NC(=O)[C@H](CS)NC(=O)[C@H](CC(=O)O)NC(=O)CNC(=O)CNC(=O)[C@H](CO)NC(=O)[C@@H](N)Cc1ccccc1)C(=O)N[C@@H](CCCN=C(N)N)C(=O)N[C@@H](CCCN=C(N)N)C(=O)N[C@@H](CCCN=C(N)N)C(=O)N[C@@H](CS)C(=O)N[C@@H](Cc1ccccc1)C(=O)N[C@@H](CS)C(=O)N[C@H](C(=O)N[C@@H](CCCN=C(N)N)C(N)=O)[C@@H](C)O` [FSGGDCRGLRRRCFCTR], the MIC in assay [9] was greater than 251 µM; in assay [10] it was 251 µM (≈ 500 µg/mL); in [11], greater than 251 µM; in assay [1], greater than 251 µM; in assay [12], 31.4 µM (≈ 62.5 µg/mL); in assay [13] it was no less than 126 µM. The MIC in assay [2] is 15.7 µM (≈ 31.2 µg/mL); in [14], no less than 251 µM; with Escherichia coli O157, no less than 229 µM; in [3] it was greater than 251 µM; against Vibrio cholerae O1 Inaba, no less than 126 µM.

As for `NCCCC[C@@H]1NC(=O)[C@H](CCCCN)NC(=O)[C@H](Cc2cnc[nH]2)NC(=O)[C@H](CCCCN)NC(=O)[C@@H](NC(=O)[C@H](CC(N)=O)NC(=O)[C@@H](N)CC(N)=O)CSSC[C@@H](C(=O)O)NC(=O)CNC(=O)[C@H](CO)NC(=O)CNC1=O` [NNCKHKKGSGC], the MIC is no less than 42.5 µM in assay [15], no less than 42.5 µM against Candida krusei CBS 573, 42.5 µM (≈ 49.9 µg/mL) in assay [16] and no less than 42.5 µM in [17].

With `CC(=O)N[C@@H](CCCN=C(N)N)C(=O)N1CCC[C@H]1C(=O)N[C@@H](CC(=O)O)C(=O)N[C@@H](CCCCN)C(=O)N1CCC[C@H]1C(=O)N[C@@H](CCCN=C(N)N)C(=O)N1CCC[C@H]1C(=O)N[C@@H](Cc1ccc(O)cc1)C(=O)N[C@@H](CC(C)C)C(=O)N1CCC[C@H]1C(=O)N[C@@H](CCCN=C(N)N)C(=O)N1CCC[C@H]1C(=O)N[C@@H](CCCN=C(N)N)C(=O)N1CCC[C@H]1C(=O)N1CCC[C@H]1C(=O)N[C@@H](CCCN=C(N)N)C(=O)N1CCC[C@H]1C(=O)N[C@H](C(=O)N[C@@H](CCCN=C(N)N)C(N)=O)C(C)C` [RPDKPRPYLPRPRPPRPVR], the MIC in assay [18] is no less than 100 µM; in assay [19] it was 2 µM (≈ 4.78 µg/mL); in [20], greater than 100 µM; in assay [3], 2.6 µM (≈ 6.22 µg/mL).

`CC[C@H](C)[C@H](NC(=O)[C@H](CC(N)=O)NC(=O)[C@H](CCCCN)NC(=O)[C@H](Cc1c[nH]c2ccccc12)NC(=O)CNC(=O)[C@H](CCC(=O)O)NC(=O)[C@H](CCCCN)NC(=O)[C@H](CC(C)C)NC(=O)[C@H](CCC(=O)O)NC(=O)[C@H](CCC(N)=O)NC(=O)[C@H](Cc1ccccc1)NC(=O)[C@@H](N)Cc1ccccc1)C(=O)N[C@@H](CCCCN)C(=O)N[C@@H](CCCCN)C(=O)N[C@@H](C)C(=O)O` [FFQELKEGWKNIKKA]: the MIC in [21] is 15.6 µM (≈ 29.1 µg/mL); in assay [22], 2 µM (≈ 3.73 µg/mL); in [23], no less than 125 µM; in assay [24], no less than 62.5 µM; in assay [25], 7.8 µM (≈ 14.6 µg/mL); in [26], 7.8 µM (≈ 14.6 µg/mL).

As for `CC[C@H](C)[C@H](NC(=O)[C@H](Cc1cnc[nH]1)NC(=O)CNC(=O)[C@H](Cc1ccccc1)NC(=O)[C@@H](N)Cc1ccccc1)C(=O)N[C@@H](Cc1c[nH]c2ccccc12)C(=O)N[C@@H](Cc1cnc[nH]1)C(=O)NCC(=O)N[C@@H](C)C(=O)N[C@@H](CCCN=C(N)N)C(=O)N[C@H](C(=O)N[C@@H](CC(C)C)C(=O)N[C@@H](Cc1ccccc1)C(=O)N[C@@H](CCCN=C(N)N)C(=O)N[C@@H](CC(=O)O)C(=O)N[C@H](C(=O)N[C@@H](Cc1ccccc1)C(=O)N[C@@H](C)C(N)=O)C(C)C)[C@@H](C)O` [FFGHIWHGARTLFRDVFA], the MIC is no less than 32 µM against Rhizoctonia solani; 8 µM (≈ 17.4 µg/mL) in assay [9]; no less than 32 µM in assay [27]; no less than 32 µM in [28]; 16 µM (≈ 34.8 µg/mL) in the assay on Ramulariopsis gossypii; 8 µM (≈ 17.4 µg/mL) in the assay on Trichoderma asperellum. Also, the MIC is 3.33 µM (≈ 7.25 µg/mL) in assay [29]; 8 µM (≈ 17.4 µg/mL) against Fusarium solani; 13.3 µM (≈ 29 µg/mL) in [30]; 4 µM (≈ 8.71 µg/mL) in assay [31]; 8 µM (≈ 17.4 µg/mL) in assay [3]; no less than 64 µM in [32]. Further, the values for the MIC (in the assay with Fusarium oxysporum; in assay [8]; in [33]) were 16 µM (≈ 34.8 µg/mL), no less than 32 µM and no less than 32 µM, respectively.

With `CC(C)C[C@H](NC(=O)[C@H](CCCN=C(N)N)NC(=O)[C@H](CC(C)C)NC(=O)[C@H](CC(C)C)NC(=O)[C@H](CC(C)C)NC(=O)[C@H](CC(C)C)NC(=O)[C@H](CCCCN)NC(=O)[C@H](CC(C)C)NC(=O)[C@@H](N)CCCN=C(N)N)C(=O)N[C@@H](CCCCN)C(N)=O` [RLKLLLLRLK], the MIC in assay [34] was 15.8 µM (≈ 20 µg/mL); in [35], 27.7 µM (≈ 35 µg/mL); in [36] it was 1.58 µM (≈ 2 µg/mL).
